# Assays:
# [1] = tested on: L. monocytogenes ATCC 19113; experiment: MIC/MBC microdilution; format: cell-based, Listeria monocytogenes; details: lowest concentration that killed 99.9%; TSB-YE; highest concentration 100 µM
# L. monocytogenes LM605 = experiment: MIC/MBC microdilution; format: cell-based, Listeria monocytogenes; details: lowest concentration that killed 99.9%; TSB-YE; highest concentration 100 µM
# [2] = tested on: L. monocytogenes ATCC 51780; experiment: MIC/MBC microdilution; format: cell-based, Listeria monocytogenes; details: lowest concentration that killed 99.9%; TSB-YE; highest concentration 100 µM
# B. cereus CMCC63301 = experiment: Potassium release and SEM (cell membrane damage); format: cell-based, Bacillus cereus; details: potassium release 1×, 2×, 4× MIC, 1 h; SEM 2× and 4× MIC, 3 h, 30°C
# Procedure: The amount of potassium released was measured using a HI96750 Potassium Photometer.
# Bacillus cereus CMCC63301 and L. monocytogenes ATCC19111 were grown in TSB medium to an OD600 of 0.3. […] The cells were harvested after centrifugation (6,000 × g, 10 min), washed with PBS buffer thrice, and fixed with 2.5% (vol/vol) glutaraldehyde for 12 h at 4°C. Subsequently, the cells were subjected to gradient dehydration for 10 min, treated with isoamyl acetate for 10 min, dried with a lyophilizer for 12 h, coated with gold-palladium, and observed using a Zeiss Gemini360 instrument ([18]).
# [3] = tested on: L. monocytogenes ATCC 19117; experiment: MIC/MBC microdilution; format: cell-based, Listeria monocytogenes; details: lowest concentration that killed 99.9%; TSB-YE; highest concentration 100 µM
# [4] = tested on: all tested gram-negative strains; experiment: MIC/MBC microdilution, summary over gram-negative strains; format: cell-based; details: up to 100 µM
# Procedure: (§1) The microdilution method ([25]) was used to measure the MIC of mycoidesin against indicator strains (Table S2). HPLC-purified mycoidesin was weighed and dissolved in a liquid culture medium to prepare various concentrations of mycoidesin (200.00, 100.00, 50.00, 25.00, 12.50, 6.25, 3.13, 1.56, 0.78, 0.39, 0.20, and 0.10 µM). A volume of 50 µL of different concentrations of mycoidesin solutions and 50 µL culture (1 × 10^6 CFU/mL) of the indicator strain were mixed in 96-well plates. The final concentrations of mycoidesin were 100.00, 50.00, 25.00, 12.50, 6.25, 3.13, 1.56, 0.78, 0.39, 0.20, 0.10, and 0.05 µM. […] The minimum bactericidal concentration (MBC) was the lowest concentration that killed 99.9% of the bacterial population. Nisin A was purified (Cayman Chemical, USA) as previously described ([26]) and was used to measure and compare the MIC values of L. monocytogenes strains and mycoidesin.
# L. monocytogenes NCT0890 = experiment: MIC/MBC microdilution; format: cell-based, Listeria monocytogenes; details: lowest concentration that killed 99.9%; TSB-YE; highest concentration 100 µM
# [5] = tested on: L. monocytogenes ATCC 19116; experiment: MIC/MBC microdilution; format: cell-based, Listeria monocytogenes; details: lowest concentration that killed 99.9%; TSB-YE; highest concentration 100 µM
# [6] = tested on: Bacillus cereus CMCC63301; experiment: Intracellular accumulation of UDP-MurNAc-pentapeptide; format: cell-based; details: mycoidesin 1× and 2× MIC, vancomycin 10× MIC; 60 min; chloramphenicol 130 µg/mL pre-incubation 15 min; HPLC, MS
# Procedure: (§2) Bacillus cereus CMCC63301 and L. monocytogenes ATCC19111 were grown to an OD600 of 0.3 and incubated with chloramphenicol (130 µg/mL) for 15 min. Mycoidesin (1× and 2× MIC) and vancomycin (10× MIC; positive control) were added and incubated for 60 min. The cells were collected, added to boiling water, treated for 15 min, centrifuged, and the supernatant was lyophilized. The intracellular accumulation of the peptidoglycan precursor UDP-MurNAc-pentapeptide was analyzed using HPLC (Hypersil ODS column) and identified via mass spectrometry ([27]).
# [7] = tested on: L. monocytogenes ATCC 19111; experiment: MIC/MBC microdilution; format: cell-based, Listeria monocytogenes; details: lowest concentration that killed 99.9%; TSB-YE; highest concentration 100 µM
# [8] = tested on: L. monocytogenes CICC 21632; experiment: MIC/MBC microdilution; format: cell-based, Listeria monocytogenes; details: lowest concentration that killed 99.9%; TSB-YE; highest concentration 100 µM
# [9] = tested on: L. monocytogenes ATCC 13932; experiment: MIC/MBC microdilution; format: cell-based, Listeria monocytogenes; details: lowest concentration that killed 99.9%; TSB-YE; highest concentration 100 µM
# [10] = tested on: L. monocytogenes ATCC 19115; experiment: MIC/MBC microdilution; format: cell-based, Listeria monocytogenes; details: lowest concentration that killed 99.9%; TSB-YE; highest concentration 100 µM
# B. subtilis CMCC63501 = experiment: Stability: residual antimicrobial activity by agar diffusion; format: physicochemical, Bacillus subtilis; details: up to 12 h
# Procedure: After treatment for 2, 4, 6, 8, 10, and 12 h, the residual antimicrobial activity of the samples was measured using the agar diffusion method, with B. subtilis CMCC63501 as the indicator strain.
# [11] = tested on: L. monocytogenes ATCC19111; experiment: Intracellular accumulation of UDP-MurNAc-pentapeptide; format: cell-based, Listeria monocytogenes; details: mycoidesin 1× and 2× MIC, vancomycin 10× MIC; 60 min; chloramphenicol 130 µg/mL pre-incubation 15 min; HPLC, MS
# Procedure: as §2
# [12] = tested on: L. monocytogenes ATCC 7644; experiment: MIC/MBC microdilution; format: cell-based, Listeria monocytogenes; details: lowest concentration that killed 99.9%; TSB-YE; highest concentration 100 µM
# [13] = tested on: L. monocytogenes ATCC 19114; experiment: MIC/MBC microdilution; format: cell-based, Listeria monocytogenes; details: lowest concentration that killed 99.9%; TSB-YE; highest concentration 100 µM
# [14] = tested on: Escherichia coli ATCC 25922; experiment: MIC/MBC microdilution; format: cell-based; details: NB, highest concentration 100 µM
# Procedure: as §1
# [15] = tested on: Serratia marcescens CMCC 41002; experiment: MIC/MBC microdilution; format: cell-based; details: NB, highest concentration 100 µM
# Procedure: as §1
# [16] = tested on: Shigella serogroups CMCC 51105; experiment: MIC/MBC microdilution; format: cell-based; details: NB, highest concentration 100 µM
# Procedure: as §1
# [17] = tested on: Salmonella enterica serotype Paratyphi CMCC 50093; experiment: MIC/MBC microdilution; format: cell-based; details: NB, highest concentration 100 µM
# Procedure: as §1
# [18] = tested on: Acinetobacter baumannii ATCC 19606; experiment: MIC/MBC microdilution; format: cell-based; details: NB, highest concentration 100 µM
# Procedure: as §1
# [19] = tested on: Salmonella Typhimurium ATCC 14028; experiment: MIC/MBC microdilution; format: cell-based; details: NB, highest concentration 100 µM
# Procedure: as §1
# [20] = tested on: Klebsiella pneumoniae CMCC 46117; experiment: MIC/MBC microdilution; format: cell-based; details: NB, highest concentration 100 µM
# Procedure: as §1
# [21] = tested on: Pseudomonas aeruginosa ATCC 27853; experiment: MIC/MBC microdilution; format: cell-based; details: NB, highest concentration 100 µM
# Procedure: as §1
# [22] = lowest concentration that killed 99.9%
structure (smiles),measurement,setting,value
C/C=C1\NC(=O)CNC(=O)[C@H](CCSC)NC(=O)[C@@H]2CS[C@@H](C)[C@@H](NC(=O)[C@@H]3CSC[C@@H](NC(=O)[C@H](CC(C)C)NC(=O)[C@H](CC(N)=O)NC(=O)[C@@H](N)Cc4ccc(O)cc4)C(=O)N[C@@H](C)C(=O)N[C@@H](C)C(=O)N[C@@H]([C@@H](C)CC)C(=O)N[C@@H](C)C(=O)N[C@@H](CC(=O)O)C(=O)N[C@@H](C)C(=O)N[C@@H](C)C(=O)NCC(=O)N[C@@H](CC(C)C)C(=O)N[C@@H](CCCCN)C(=O)NCC(=O)N[C@@H](CC(N)=O)C(=O)N[C@@H](Cc4ccc(O)cc4)C(=O)NCC(=O)N[C@@H](CCCCN)C(=O)N[C@@H](Cc4ccccc4)C(=O)N3)C(=O)N[C@@H](Cc3ccc(O)cc3)C(=O)N[C@H](CSC[C@@H](C(=O)NCC(=O)N[C@@H](CO)C(=O)O)NC(=O)[C@H](CO)NC(=O)[C@H](C(C)C)NC1=O)C(=O)N[C@@H](C)C(=O)N[C@@H](CCC(=O)O)C(=O)N2 [mycoidesin],MBC,[1],NA (No activity was detected even at the highest concentration of mycoidesin (100 µM))
same,MBC,L. monocytogenes LM605,NA (No activity was detected even at the highest concentration of mycoidesin (100 µM))
same,MBC,[2],NA (No activity was detected even at the highest concentration of mycoidesin (100 µM))
same,cell membrane damage,B. cereus CMCC63301,caused damage to the cell membrane
same,MBC,[3],NA (No activity was detected even at the highest concentration of mycoidesin (100 µM))
same,antimicrobial activity,[4],no antimicrobial activity
same,MBC,L. monocytogenes NCT0890,NA (No activity was detected even at the highest concentration of mycoidesin (100 µM))
same,MBC,[5],NA (No activity was detected even at the highest concentration of mycoidesin (100 µM))
same,Intracellular accumulation of UDP-MurNAc-pentapeptide,[6],observed
same,MBC,[7],NA (No activity was detected even at the highest concentration of mycoidesin (100 µM))
same,MBC,[8],NA (No activity was detected even at the highest concentration of mycoidesin (100 µM))
same,MBC,[9],NA (No activity was detected even at the highest concentration of mycoidesin (100 µM))
same,MBC,[10],NA (No activity was detected even at the highest concentration of mycoidesin (100 µM))
same,residual antimicrobial activity,"B. subtilis CMCC63501; pH 7.0, 37°C, mycoidesin 6.25 µM, nisin A 12.5 µM (4× MIC)",remained unchanged
same,residual antimicrobial activity,"B. subtilis CMCC63501; pH 7.0, 60°C, mycoidesin 6.25 µM (4× MIC)",decreased with increasing incubation time
same,residual antimicrobial activity,"B. subtilis CMCC63501; pH 8.0, 37°C, mycoidesin 6.25 µM, nisin A 12.5 µM (4× MIC)",decreased
same,residual antimicrobial activity,"B. subtilis CMCC63501; pH 8.0, 60°C, mycoidesin 6.25 µM (4× MIC)",decreased with increasing incubation time
same,Intracellular accumulation of UDP-MurNAc-pentapeptide,[11],observed
same,MBC,[12],NA (No activity was detected even at the highest concentration of mycoidesin (100 µM))
same,MBC,[13],NA (No activity was detected even at the highest concentration of mycoidesin (100 µM))
same,MBC,[14]; [22],NA (No activity was detected even at the highest concentration of mycoidesin (100 µM))
same,MIC,"[14]; microdilution, 30°C, 16 h",NA (No activity was detected even at the highest concentration of mycoidesin (100 µM))
same,MBC,[15]; [22],NA (No activity was detected even at the highest concentration of mycoidesin (100 µM))
same,MIC,"[15]; microdilution, 30°C, 16 h",NA (No activity was detected even at the highest concentration of mycoidesin (100 µM))
same,MBC,[16]; [22],NA (No activity was detected even at the highest concentration of mycoidesin (100 µM))
same,MIC,"[16]; microdilution, 30°C, 16 h",NA (No activity was detected even at the highest concentration of mycoidesin (100 µM))
same,MBC,[17]; [22],NA (No activity was detected even at the highest concentration of mycoidesin (100 µM))
same,MIC,"[17]; microdilution, 30°C, 16 h",NA (No activity was detected even at the highest concentration of mycoidesin (100 µM))
same,MBC,[18]; [22],NA (No activity was detected even at the highest concentration of mycoidesin (100 µM))
same,MIC,"[18]; microdilution, 30°C, 16 h",NA (No activity was detected even at the highest concentration of mycoidesin (100 µM))
same,MBC,[19]; [22],NA (No activity was detected even at the highest concentration of mycoidesin (100 µM))
same,MIC,"[19]; microdilution, 30°C, 16 h",NA (No activity was detected even at the highest concentration of mycoidesin (100 µM))
same,MBC,[20]; [22],NA (No activity was detected even at the highest concentration of mycoidesin (100 µM))
same,MIC,"[20]; microdilution, 30°C, 16 h",NA (No activity was detected even at the highest concentration of mycoidesin (100 µM))
same,MBC,[21]; [22],NA (No activity was detected even at the highest concentration of mycoidesin (100 µM))
same,MIC,"[21]; microdilution, 30°C, 16 h",NA (No activity was detected even at the highest concentration of mycoidesin (100 µM))
